Measured values: patent US10160756B2 (priority 2014, dated 2018)
Where two headings read alike, the source gives them in different places.

Tests used:
MARV VP40 (mVP40) VLPs = experiment: organism not typed; format: cell-based, Marburg virus (MARV)
EBOV VP40 (eVP40) VLPs = format: cell-based, Ebola virus (EBOV)
VSV-WT = format: cell-based, vesicular stomatitis virus (Indiana strain)
mVP40-Nedd4 interaction = mVP40-Nedd4 interaction (Homo sapiens, UniProt P46934); format: cell-based
E-BiMC (Ebola VP40) = format: cell-based
LFV Z VLPs = format: cell-based, Lassa fever virus (LFV)
VSV-M40 = format: cell-based, vesicular stomatitis virus

Chain of mVP40-Nedd4 interaction (P46934 whole entry): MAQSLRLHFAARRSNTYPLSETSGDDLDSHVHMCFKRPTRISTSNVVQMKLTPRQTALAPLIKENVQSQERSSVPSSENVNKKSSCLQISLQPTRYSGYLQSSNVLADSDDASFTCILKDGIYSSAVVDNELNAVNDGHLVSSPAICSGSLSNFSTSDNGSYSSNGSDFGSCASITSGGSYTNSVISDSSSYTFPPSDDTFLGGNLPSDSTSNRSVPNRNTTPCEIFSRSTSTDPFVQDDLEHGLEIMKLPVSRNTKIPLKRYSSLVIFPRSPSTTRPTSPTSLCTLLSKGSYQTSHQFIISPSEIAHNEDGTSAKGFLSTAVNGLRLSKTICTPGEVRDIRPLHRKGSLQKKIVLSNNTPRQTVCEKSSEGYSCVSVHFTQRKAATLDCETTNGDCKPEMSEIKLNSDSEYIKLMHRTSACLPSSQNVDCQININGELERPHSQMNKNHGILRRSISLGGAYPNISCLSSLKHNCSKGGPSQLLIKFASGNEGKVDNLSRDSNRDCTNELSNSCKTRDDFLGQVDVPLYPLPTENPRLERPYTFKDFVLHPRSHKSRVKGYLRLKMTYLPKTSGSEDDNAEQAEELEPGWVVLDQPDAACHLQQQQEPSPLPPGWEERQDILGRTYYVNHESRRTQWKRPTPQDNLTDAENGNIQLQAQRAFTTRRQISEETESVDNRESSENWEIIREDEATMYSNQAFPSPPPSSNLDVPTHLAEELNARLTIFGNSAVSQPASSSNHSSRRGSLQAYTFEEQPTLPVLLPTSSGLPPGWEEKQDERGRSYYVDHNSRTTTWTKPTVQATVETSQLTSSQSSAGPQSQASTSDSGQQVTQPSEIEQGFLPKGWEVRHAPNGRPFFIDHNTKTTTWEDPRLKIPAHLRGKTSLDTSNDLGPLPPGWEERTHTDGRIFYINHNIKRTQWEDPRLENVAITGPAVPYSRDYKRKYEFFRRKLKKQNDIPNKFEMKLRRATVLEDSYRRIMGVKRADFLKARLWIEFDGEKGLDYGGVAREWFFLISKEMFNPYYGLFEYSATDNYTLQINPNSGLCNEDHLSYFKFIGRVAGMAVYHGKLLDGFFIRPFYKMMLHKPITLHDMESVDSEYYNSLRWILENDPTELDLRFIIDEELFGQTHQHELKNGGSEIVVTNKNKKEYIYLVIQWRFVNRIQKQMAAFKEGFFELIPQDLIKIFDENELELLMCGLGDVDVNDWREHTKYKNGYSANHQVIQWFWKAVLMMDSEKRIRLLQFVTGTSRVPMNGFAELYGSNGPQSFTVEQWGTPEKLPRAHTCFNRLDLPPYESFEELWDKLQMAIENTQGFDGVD

With `Cc1n[nH]c(C)c1NC(=O)CN1CCN(c2nc3ccccc3s2)CC1` [Compound 2g, 2-(4-(benzo[d]thiazol-2-yl)piperazin-1-yl)-N-(3,5-dimethyl-1H-pyrazol-4-yl)acetamide] the “activity in SAR studies, MVP40 VLP budding (words, FIG. 10)” value (from here on “activity in SAR studies”) (MARV VP40 (mVP40) VLPs) was “inactive”.
`Cc1nc2ccccc2nc1SCC(=O)NC(=O)NCC(F)(F)F` [Compound 3, 2-((3-methylquinoxalin-2-yl)thio)-N-((2,2,2-trifluoroethyl)carbamoyl) acetamide] was tested, and the “activity in SAR studies” value (MARV VP40 (mVP40) VLPs) was “very effective”, the “inhibition of egress of mVP40 VLPs” value (MARV VP40 (mVP40) VLPs; 1.0 μM) was 10 fold and the “inhibition of egress of mVP40 VLPs” value (MARV VP40 (mVP40) VLPs; 10 μM) was 100 fold. For the same compound, the “inhibition of egress of mVP40 VLPs” value (MARV VP40 (mVP40) VLPs; 20 μM) was 100 fold, the “inhibition of egress of eVP40 VLPs” value (EBOV VP40 (eVP40) VLPs; 1.0 μM) was < 2 fold and the “inhibition of egress of eVP40 VLPs” value (EBOV VP40 (eVP40) VLPs; 10 μM) was 4.5 fold. For the same compound, the “inhibition of egress of eVP40 VLPs” value (EBOV VP40 (eVP40) VLPs; 20 μM) was 20 fold.
`Cc1n[nH]c(C)c1NC(=O)CN1CCCC(c2nc3ccccc3s2)C1` (stereo not shown) [Compound 2, 2-(3-(benzo[d]thiazol-2-yl)piperidin-1-yl)-N-(3,5-dimethyl-1H-pyrazol-4-yl) acetamide] was tested, and the “inhibition of budding of live wild type VSV” value (VSV-WT) was “significantly inhibited”, the “target engagement in M-BiMC assay” value (mVP40-Nedd4 interaction) was “showed target engagement” and the “inhibition of egress of Marburg (M) VP40 VLPs” value (MARV VP40 (mVP40) VLPs; 20 μM) was “nearly full inhibition”. For the same compound, the “inhibition of egress of mVP40 VLPs” value (MARV VP40 (mVP40) VLPs; 20 μM) was 33 fold, the “inhibition of egress of mVP40 VLPs” value (MARV VP40 (mVP40) VLPs; 40 μM) was 100 fold and the “inhibition of egress of eVP40 VLPs” value (EBOV VP40 (eVP40) VLPs; 20 μM) was 2.5 fold. For the same compound, the “inhibition of egress of Ebola (E) VP40 VLPs” value (EBOV VP40 (eVP40) VLPs; 40 μM) was “nearly full inhibition”, the “inhibition of egress of eVP40 VLPs” value (EBOV VP40 (eVP40) VLPs; 40 μM) was 40 fold and the “target engagement in E-BiMC assay” value (E-BiMC (Ebola VP40)) was “showed target engagement”.
In the case of `O=C(CN1CCCC(c2nc3ccccc3s2)C1)NC(=O)NCC(F)(F)F` (stereo not shown) [Compound 1, 2-(3-(benzo[d]thiazol-2-yl)piperidin-1-yl)-N-((2,2,2-trifluoroethyl)carbamoyl) acetamide], the “reduction of budding of VSV-WT” value (VSV-WT; 10 μM) is reported as “approximately 5 fold” and the “inhibition of egress of mVP40 VLPs” value (MARV VP40 (mVP40) VLPs; 20 μM) is reported as ~5 fold.
With `Cc1nc2ccccc2nc1SCC(=O)NC(=O)Nc1ccccc1` [Compound 5, 2-((3-methylquinoxalin-2-yl)thio)-N-(phenylcarbamoyl)acetamide] the “inhibition of egress of LFV Z VLPs” value (LFV Z VLPs; 0.1 μM) was “approximately 3 fold”, the “inhibition of egress of LFV Z VLPs” value (LFV Z VLPs; 0.5 μM) was ~5 fold and the “inhibition of egress of VSV-M40” value (VSV-M40; 0.1 μM) was 2 fold. For the same compound, the “inhibition of egress of VSV-M40” value (VSV-M40; 0.5 μM) was 6 fold, the “inhibition of egress of VSV-WT” value (VSV-WT; 0.5 μM) was 4 fold and the “inhibition of egress of mVP40 VLPs” value (MARV VP40 (mVP40) VLPs; 0.1 μM) was 25 fold. The “inhibition of egress of mVP40 VLPs” value (MARV VP40 (mVP40) VLPs; 0.5 μM) was 100 fold, the “inhibition of egress of mVP40 VLPs” value (MARV VP40 (mVP40) VLPs; 1.0 μM) was 100 fold and the IC50 (MARV VP40 (mVP40) VLPs; read-out: IC50, anti-budding activity on MVP40) was < 100 nM. The “inhibition of egress of eVP40 VLPs” value (EBOV VP40 (eVP40) VLPs; 0.1 μM) was < 2 fold, the “inhibition of egress of eVP40 VLPs” value (EBOV VP40 (eVP40) VLPs; 0.5 μM) was 3.5 fold and the “inhibition of egress of eVP40 VLPs” value (EBOV VP40 (eVP40) VLPs; 1.0 μM) was 7 fold.
`Cc1nn(-c2ccccc2)c(C)c1NC(=O)CN1CCCC(c2nc3ccccc3s2)C1` (stereo not shown) [Compound 4, 2-(3-(benzo[d]thiazol-2-yl)piperidin-1-yl)-N-(3,5-dimethyl-1-phenyl-1H-pyrazol-4-yl)acetamide] was tested, and the “inhibition of egress of LFV Z VLPs” value (LFV Z VLPs; 0.5 μM) was > 5 fold, the “inhibition of egress of VSV-M40” value (VSV-M40; 0.1 μM) was “approximately 2 fold” and the “inhibition of egress of VSV-M40” value (VSV-M40; 0.5 μM) was 3 fold. The “PPxY-dependent budding of VSV reduced” value (VSV-WT; 0.1 μM) was “approximately 50%”, the “PPxY-dependent budding of VSV reduced” value (VSV-WT; 0.5 μM) was ~100% and the “inhibition of egress of VSV-WT” value (VSV-WT; 0.5 μM) was “approximately 20 fold”. The “inhibition of egress of live VSV-WT” value (VSV-WT; 0.5 μM) was “more than 1 log”, the “titer of VSV-WT” value (VSV-WT; 0.5 μM) was 1.8×10^6 pfu/ml and the “activity in SAR studies” value (MARV VP40 (mVP40) VLPs) was “sub-micromolar”. For the same compound, the “budding of mVP40 VLPs reduced” value (MARV VP40 (mVP40) VLPs) was > 90%, the “inhibition of egress of mVP40 VLPs” value (MARV VP40 (mVP40) VLPs; 0.5 μM) was 30 fold and the “inhibition of egress of mVP40 VLPs” value (MARV VP40 (mVP40) VLPs; 1.0 μM) was 100 fold. The “inhibition of egress of eVP40 VLPs” value (EBOV VP40 (eVP40) VLPs; 0.5 μM) was 3 fold and the “inhibition of egress of eVP40 VLPs” value (EBOV VP40 (eVP40) VLPs; 1.0 μM) was 10 fold.
With `Cc1nc2ccccc2nc1SCC(=O)NC(=O)NC1CC1` [Compound 3g, N-(cyclopropylcarbamoyl)-2-((3-methylquinoxalin-2-yl)thio)acetamide] the “potency relative to 3 in the MVP40 budding assay” value (MARV VP40 (mVP40) VLPs) was “as or more potent than 3”.
In the case of `CCNC(=O)NC(=O)CSc1nc2ccccc2nc1C` [Compound 3f, N-(ethylcarbamoyl)-2-((3-methylquinoxalin-2-yl)thio)acetamide], the “potency relative to 3 in the MVP40 budding assay” value (MARV VP40 (mVP40) VLPs) is reported as “as or more potent than 3”.
With `O=C(CN1CCCC(c2nc3ccccc3s2)C1)NCCOc1ccccc1` (stereo not shown) [Compound 2e, 2-(3-(benzo[d]thiazol-2-yl)piperidin-1-yl)-N-(2-phenoxyethyl)acetamide] the “activity in the M VP40 budding assay” value (MARV VP40 (mVP40) VLPs; 10 μM) was “active”.
With `Cc1nc2ccccc2nc1SCC(=O)NC(=O)NCc1cccs1` [Compound 3i, 2-((3-methylquinoxalin-2-yl)thio)-N-((thiophen-2-ylmethyl)carbamoyl)acetamide] the “potency relative to 3 in the MVP40 budding assay” value (MARV VP40 (mVP40) VLPs) was “as or more potent than 3”.
